Experimental data: patent US9440980B2, “Remedy for diabetes” (EA Pharma Co., Ltd., priority 2007, dated 2016)

Tests used:
HLF cell membrane = assay: Binding assay of 3H-labeled Compound 1 using HLF cell membrane; design: species or system human; conditions: 3H-labeled Compound 1, calculated by Scatchard plot
Description: A cell membrane of a human liver-derived HLF cell was prepared as follows. HLF cells were approximately confluently cultured in a Dulbecco MEM medium containing 10% FCS in a cell culture dish having a diameter of 15 cm. The HLF cells cultured in 30 dishes were scraped by a cell scraper in the presence of an HMEE buffer (20 mM HEPES-KOH, 1 mM EDTA, 1 mM EGTA, and 2 mM MgCl2) to obtain about 30 ml of a cell suspension. The suspension was homogenized using a TEFLON (registered trademark) homogenizer (ice temperature, 1000 rpm, 15 stroke) and centrifuged at a low rate (1500 rpm, 5 minutes). […]
The binding assay of the ^3H-labeled Compound 1 on thus obtained cell membrane was carried out as follows. […] The filter plate was well washed with a TBS (20 mM Tris-HCl, 0.15 M NaCl, pH 7.4) containing 0.05% Twee-20 and sufficiently dried, 30 μl of a liquid scintillator (Microscinti 0, Packard) was added to the filter plate, and the ^3H count was measured by Topcount (Packard). […]
The inhibitory activity of each of the probe molecule compounds synthesized in Examples 2 and 7 to 10 against the binding of the ^3H-labeled Compound 1 to the HLF cell membrane was measured by the method described in Example 14 to confirm whether the probe compound could be bound to the binding protein like Compound 1. […]

[1] = biological target: T1, binding between the Gβ and the p110β (PI3-kinase β) (Homo sapiens, UniProt P42338+P62873); assay: Binding of Gβ1γ2-Myc to PI3-kinase β (immunoprecipitation, Western blot); conditions: Compound 1 (0.1 μM) and Compound 6 (1 mM) approximately the same effect; FIG. 15
T1 construct: purchased Upstate 14-603
T1 sequence (P42338 whole entry): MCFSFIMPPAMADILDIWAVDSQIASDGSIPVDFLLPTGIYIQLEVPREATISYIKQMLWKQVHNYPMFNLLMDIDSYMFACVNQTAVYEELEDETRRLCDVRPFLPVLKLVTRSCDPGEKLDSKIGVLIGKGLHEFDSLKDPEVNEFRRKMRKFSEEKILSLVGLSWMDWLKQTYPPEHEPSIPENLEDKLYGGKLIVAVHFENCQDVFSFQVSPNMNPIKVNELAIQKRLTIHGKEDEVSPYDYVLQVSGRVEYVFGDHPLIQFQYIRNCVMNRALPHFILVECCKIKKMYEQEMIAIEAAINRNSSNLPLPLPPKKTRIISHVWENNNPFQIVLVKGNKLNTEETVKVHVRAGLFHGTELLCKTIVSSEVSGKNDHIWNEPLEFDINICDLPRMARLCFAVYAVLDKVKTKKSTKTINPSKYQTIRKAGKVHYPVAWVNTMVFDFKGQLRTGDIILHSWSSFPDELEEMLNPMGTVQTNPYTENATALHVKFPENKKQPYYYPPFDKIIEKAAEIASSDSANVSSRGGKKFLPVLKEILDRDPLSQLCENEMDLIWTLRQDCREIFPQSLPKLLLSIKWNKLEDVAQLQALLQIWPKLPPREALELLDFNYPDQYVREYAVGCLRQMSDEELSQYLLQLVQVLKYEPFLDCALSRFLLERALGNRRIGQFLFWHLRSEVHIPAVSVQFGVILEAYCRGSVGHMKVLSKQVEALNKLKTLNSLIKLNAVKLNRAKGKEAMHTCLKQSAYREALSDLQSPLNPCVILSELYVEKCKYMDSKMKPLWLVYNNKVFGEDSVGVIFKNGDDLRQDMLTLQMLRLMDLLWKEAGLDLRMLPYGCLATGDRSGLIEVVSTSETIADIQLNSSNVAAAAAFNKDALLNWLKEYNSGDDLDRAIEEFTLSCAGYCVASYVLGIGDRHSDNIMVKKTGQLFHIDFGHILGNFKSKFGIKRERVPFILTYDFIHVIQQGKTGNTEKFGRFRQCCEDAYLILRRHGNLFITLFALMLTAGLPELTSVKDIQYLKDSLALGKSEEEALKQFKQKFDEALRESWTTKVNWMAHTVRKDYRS
T1 sequence (P27986 whole entry partner): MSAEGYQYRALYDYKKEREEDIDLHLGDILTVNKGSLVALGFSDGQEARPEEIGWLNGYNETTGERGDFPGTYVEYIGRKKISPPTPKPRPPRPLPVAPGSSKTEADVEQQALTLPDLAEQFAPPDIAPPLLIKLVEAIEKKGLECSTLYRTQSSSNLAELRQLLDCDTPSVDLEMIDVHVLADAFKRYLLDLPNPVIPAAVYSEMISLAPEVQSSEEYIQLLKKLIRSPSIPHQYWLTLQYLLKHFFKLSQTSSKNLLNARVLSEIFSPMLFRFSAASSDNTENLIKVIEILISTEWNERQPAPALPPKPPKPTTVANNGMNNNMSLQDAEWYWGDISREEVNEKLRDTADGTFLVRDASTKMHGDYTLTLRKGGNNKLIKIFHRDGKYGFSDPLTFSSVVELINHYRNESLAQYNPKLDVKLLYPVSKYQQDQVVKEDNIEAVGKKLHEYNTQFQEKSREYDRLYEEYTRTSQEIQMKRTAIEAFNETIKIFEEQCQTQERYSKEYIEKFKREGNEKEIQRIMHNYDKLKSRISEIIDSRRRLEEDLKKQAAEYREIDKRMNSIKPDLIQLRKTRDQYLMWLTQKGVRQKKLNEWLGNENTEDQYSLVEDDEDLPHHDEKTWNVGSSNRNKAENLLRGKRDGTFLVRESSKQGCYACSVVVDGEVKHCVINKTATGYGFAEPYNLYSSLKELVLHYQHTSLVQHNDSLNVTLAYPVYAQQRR
T1 sequence (P62873 whole entry): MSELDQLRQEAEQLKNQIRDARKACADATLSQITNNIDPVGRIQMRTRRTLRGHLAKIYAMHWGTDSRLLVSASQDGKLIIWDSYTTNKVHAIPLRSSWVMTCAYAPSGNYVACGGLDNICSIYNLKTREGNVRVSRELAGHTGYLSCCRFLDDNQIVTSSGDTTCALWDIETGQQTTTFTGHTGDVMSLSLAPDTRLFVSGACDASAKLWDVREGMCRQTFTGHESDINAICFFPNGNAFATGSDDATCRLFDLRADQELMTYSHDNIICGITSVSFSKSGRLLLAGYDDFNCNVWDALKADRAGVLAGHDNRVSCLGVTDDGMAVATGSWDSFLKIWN
T1 sequence (P59768 with tags, fused parts or gaps partner limits assumed): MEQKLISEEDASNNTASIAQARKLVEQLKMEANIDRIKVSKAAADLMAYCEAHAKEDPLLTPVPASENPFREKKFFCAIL
Description: 300 μl of a PI3K buffer (40 mM HEPES-Na (pH 7.4), 120 mM NaCl, 1 mM EGTA, 1 mM dithiothreitol, 1 mM β glycerophosphoric acid, 10 mM MgCl2, 0.1% BSA) was added to a 1.5-ml microtube, and to this were added 200 ng of the Gβ1γ2-Myc obtained in Example 20 (1), 160 ng of PI3-kinase β (PI3 Kinase (p110β/p85α), active, Upstate, Product No. 14-603), and a test substance. The mixture was left at room temperature for 30 minutes, to this was added 10 μl of a solution of an anti-cMyc antibody (9E10, 200 μg/ml, SantaCruz, Product No. sc-40), and the resulting mixture was left at room temperature for 2 hours. To the solution was added 25 μl of anti-mouse IgG agarose beads (American Qualex, Product No. 61060) which were washed with the same buffer, stirred at room temperature for 1 hour and centrifuged (10000 rpm, 1 minute) to remove the supernatant. Furthermore, the beads were washed with 0.5 ml of the buffer 3 times, eluted in a boiling SDS-containing buffer, and subjected to an SDS polyacrylamide electrophoresis. Then, the amounts of the p110β and the Gβ adsorbed to the beads were measured by a Western blot method using an anti-p110β antibody (SantaCruz, Product No. sc-602) and an anti-Gβ antibody (SantaCruz, Product No. sc-261).

[2] = tested on: PI3-kinase α (p110α/p85α); assay: PI3-kinase subtype activity in the presence of Gβ1γ2-Myc (PIP3 production, 32P-ATP, TLC); type: biochemical; conditions: 30 μM, FIG. 13
Description: The subtypes α (PI3 Kinase (p110α/p85α), active, Upstate, Product No. 14-602), β (PI3 Kinase (p110β/p85α), active, Upstate, Product No. 14-603), γ ((PI3KγHis-GST (Phosphoinositide 3-kinase p110γHis/p101GST) human, Recombinant, Sf9 insect cell, JENA Bioscience, Product No. PR-347S), and δ (PI3 Kinase (p110δ/p85α), active, Upstate, Product No. 14-604) were used as the PI3-kinase subtypes respectively. A PI3K buffer (40 mM HEPES-Na (pH 7.4), 120 mM NaCl, 1 mM EGTA, 1 mM dithiothreitol, 1 mM β glycerophosphoric acid, 10 mM MgCl2, 0.1% BSA) was used as a buffer in the following reactions.
A mixture liquid of phosphatidylethanolamine (0.256 μmol), phosphatidylserine (0.24 μmol), phosphatidylcholine (0.112 μmol), sphingomyelin (0.024 μmol), and phosphatidylinositol-[4,5]-bisphosphate (0.032 μmol) was added to a glass tube and dried by argon gas, and to this was added the PI3K buffer (0.27 ml) at ice temperature. This solution was ultrasonic-treated in ice to prepare a lipid micelle solution. […] The data were analyzed by a software of BAS2000, the analysis region was controlled such that spots of phosphatidylinositol-[3,4,5]-trisphosphate (PIP3) in the TLC lanes have the same areas, and the energy (PSL) corresponding to each radioactivity was quantified in the region.

Row | SMILES | Kd (HLF cell membrane) [nM] | effect on the binding between the Gβ and the p110β (PI3-kinase β) [1] | effect on PI3-kinase α activity [2]
1 | O=C1NCC2=C1[C@@H](c1cccc3ccsc13)N(C(=O)CCc1ccccn1)[C@@H]1CCCC[C@H]1N2 [Compound 1] | 930 | enhanced | only on the PI3-kinase β
2 | O=C1NCC2=C1[C@@H](c1ccccc1)N(C(=O)CO)[C@@H]1CCCC[C@H]1N2 [Compound 6] |  | enhanced | 
